Square brackets hold non-standard residues; d marks the D form. Peptide text beside a SMILES is read from it.
Assay: Solubility in water or saline
Type: physicochemical
Excerpt: One of the compounds is a heptapeptide having the sequence Tyr-D-Met-Phe-His-Leu-Met-Asp-NH2 SEQ ID NO:1, hereinafter referred to as deltorphin A. Another of the compounds is a thirteen amino acid sequence Tyr-D-Ala-Phe-Gly-Tyr-Pro-Ser-Gly-Glu-Ala-Lys-Lys-Ile SEQ ID NO:2. The peptides may be produced by a number of methods, such as using an automated peptide synthesizer, through recombinant molecular techniques, or isolated from a naturally occurring source, as is known to one skilled in the art. Deltorphin A SEQ ID NO:1 has a molecular weight of 955.1 daltons, and Dermorphin H SEQ ID NO:2 has a molecular weight of about 1430.64 daltons. […] The initial alkaline pH is adjusted to 7.4 with 1 N HCl.

Structure (SMILES): CC[C@H](C)[C@H](NC(=O)[C@H](CCCCN)NC(=O)[C@H](CCCCN)NC(=O)[C@H](C)NC(=O)[C@H](CCC(=O)O)NC(=O)CNC(=O)[C@H](CO)NC(=O)[C@@H]1CCCN1C(=O)[C@H](Cc1ccc(O)cc1)NC(=O)CNC(=O)[C@H](Cc1ccccc1)NC(=O)[C@@H](C)NC(=O)[C@@H](N)Cc1ccc(O)cc1)C(=O)O [Dermorphin H, Tyr-D-Ala-Phe-Gly-Tyr-Pro-Ser-Gly-Glu-Ala-Lys-Lys-Ile] (H-Y[dA]FGYPSGEAKKI-OH; N-terminus and C-terminus assumed)
- solubility: insoluble in water or saline

Structure (SMILES): CSCC[C@H](NC(=O)[C@H](CC(C)C)NC(=O)[C@H](Cc1cnc[nH]1)NC(=O)[C@H](Cc1ccccc1)NC(=O)[C@@H](CCSC)NC(=O)[C@@H](N)Cc1ccc(O)cc1)C(=O)N[C@@H](CC(=O)O)C(N)=O [Deltorphin A, Tyr-D-Met-Phe-His-Leu-Met-Asp-NH2] (H-Y[dM]FHLMD-NH2)
- solubility: insoluble in water or saline

— patent US7060792B2, “Protection against ischemia and reperfusion injury” (University of Kentucky Research Foundation, priority 2000, dated 2006)
